# Measured values taken from patent EP1501797B1, “3-(SUBSTITUTED AMINO)-1H-INDOLE-2-CARBOXYLIC ACID ESTER AND 3-(SUBSTITUTED AMINO)-BENZO[B]THIOPHENE-2-CARBOXYLIC ACID ESTER DERIVATIVES AS INTERLEUKIN-4 GENE EXPRESSION INHIBITORS” (Aventis Pharmaceuticals Inc., priority 2002, dated 2003).
# Like-named read-outs stand apart in the source and are kept apart here.
# Key:
# Type in all cases: cell-based
# IL-5 = test: Human primary Th2 cells, anti-CD3/anti-CD28 activated, IL-5 ELISA
# Experimental: (§1) Briefly, CD4^+CD45RA^+ T cells, isolated from donor peripheral blood mononuclear cells of healthy donors, are educated in the presence of anti-CD3/CD28 antibodies and various growth factors to obtain either a Thl-like or Th2-like phenotypes as determined by the known cytokine profiles of these two cell types.
# (§2) Peripheral blood mononuclear cells (PBMC) are prepared from human blood by Ficoll-Hypacque (Pharmacia). The cells are washed two times in Hanks balanced salt solution (HBSS) and counted.
# (§3) Naive T cells (CD4^+/CD45RA ) are prepared by negative selection method using following antibodies and Dynabeads: anti-CD8, anti-HLA-DR, (where HLA means human leucocyte antigen) anti-CD14, anti-CD16, anti-CD19, anti-CD45RO antibodies (all from R&D Systems, 1-2 µg/ml) are added to the cells, and the cells are kept on ice for 30 min. The cells are washed two times in HBSS, and goat anti- mouse Ig-beads, (bead:target ratio, 5:1) are added. The cells and beads are slowly rotated at 4°C for 20 min. (following the protocol supplied from Dynal). The supernatant is removed and fresh goat anti-mouse Ig-beads are added to the supernatant, which is slowly rotated at 4°C for 20 min. The cells are counted and phenotypically characterized by flow cytometric analysis.
# (§4) CD4^+/CD45RA^+ cells at a density of 10^6/ml in RPMI, is prepared and added to RPMI medium containing 10% Hyclone serum/ glutamine and 1-2 µg/ml anti-CD28 Ab. The cells are split in two aliquots. For Th1 cells: anti-IL-4 Ab (1-2 µg/ml), IFN-γ (1 µg/ml, or 5000 units/ml) are added to the wells. For Th2 cells: IL-4 (100-200 ng/ml), anti-IFN-γ neutralizing Ab (1-2 µg/ml), anti-IL-12 neutralizing Ab (1-2 µg/ml) are added into the wells. […] The cells are transferred to fresh wells and grown in 200 units/ml IL-2 for 2 weeks by feeding them every other day with IL-2 containing medium and splitting the cultures 1:2 or 1:3 as needed. The degree of polarization is determined by intracellular staining of cells with anti-IFN-γ and anti-IL-4 antibodies from Pharmingen, and using flow cytometry from Becton Dickinson (BD), according to manufacturers description. The cells are stimulated with PHA and alloantigens at day 14 and 28 as described below. Eight days after the second allostimulation the cells can be used for compound screening or frozen for future use. For compound testing, large quantities of Th1 and Th2 cells derived from a given donor (NYTh1 and NYTh2) were expanded and frozen as aliquots in liquid nitrogen. The cells are thawed and cultured as and when needed. The thawed cells are stimulated with alloantigen/PHA combination. The cells are used for compound screening after 8-10 days in culture.
# (§5) Re-stimulation by allogeneic cells: Human PBMCs, to be used as alloantigens, are isolated from freshly drawn blood by Ficoll separation. […] Cells are counted and diluted to a final concentration of 2 x 10^6/ml in medium containing 10 µg/ml PHA and 200 units/ml IL-2.
# (§6) Ninetysix well Falcon tissue culture plates (Fisher Scientific) are coated with 100 microliters per well of 10 µg/ml anti-CD3 (PharMingen) antibody in phosphate buffered saline (PBS) and stored at 4°C one day before the experiment.
# (§7) On the day of assay, anti-CD3 antibody coated plates are washed with PBS once to remove all soluble anti-CD3 antibody. […] All compounds and controls are assayed in triplicates.
# IL-13 = test: Human primary Th2 cells, anti-CD3/anti-CD28 activated, IL-13 ELISA
# Experimental: as §1, §2, §3, §4, §5, §6, §7
# IL-4 = test: Human primary Th2 cells, anti-CD3/anti-CD28 activated, IL-4 ELISA
# Experimental: as §1, §2, §3, §4, §5, §6, §7
# human IL-13 promoter = test: IL-13 Luc assay in Jurkat cells (2.1IL-13 Luc); conditions: Jurkat cell line; concentration not given; 480 min
# IFN-γ = test: Human primary Th2 cells, anti-CD3/anti-CD28 activated, IFN-γ ELISA
# Experimental: as §1, §2, §3, §4, §5, §6, §7
# IL-4 mRNA = test: Human Th2 IL-4 transcriptional assay (Taqman, GAPDH normalised); conditions: 18 hours, stimulated CD3/CD28 = 100%
# Experimental: RNAs were isolated from the harvested cells and analyzed for IL-4 message by Taqman. GAPDH message was used as an internal standard for normalization. The percent activity was calculated by treating the values from not drug treated, anti-CD3 and anti-CD28 stimulated Th2 cells as 100%. […] In the second experiment IL-4 protein levels were also determined by standard ELISA in culture supernatants as described earlier. […]
# [1] = Human primary Th2 cells, combined data from 10 different experiments
compound,measurement,setting,value
"O=C(O)c1[nH]c2ccccc2c1Nc1ccncc1 [Example 28, 3-(4-Pyridinylamino)-1H-indole-2-carboxylic acid]",activity at 0.01 µM,"IL-5; Homo sapiens, 0.01 µM, 48 hr, read-out: IL-5 (% control) mean",102%
same,activity at 0.03 µM,"IL-5; Homo sapiens, 0.03 µM, 48 hr, read-out: IL-5 (% control) mean",85.2%
same,activity at 0.1 µM,"IL-5; Homo sapiens, 0.1 µM, 48 hr, read-out: IL-5 (% control) mean",78.6%
same,activity at 0.3 µM,"IL-5; Homo sapiens, 0.3 µM, 48 hr, read-out: IL-5 (% control) mean",70.8%
same,activity at 1 µM,"IL-5; Homo sapiens, 1 µM, 48 hr, read-out: IL-5 (% control) mean",70.7%
same,activity at 3 µM,"IL-5; Homo sapiens, 3 µM, 48 hr, read-out: IL-5 (% control) mean",70.4%
same,activity at 10 µM,"IL-5; Homo sapiens, 10 µM, 48 hr, read-out: IL-5 (% control) mean",53.9%
same,IC50,IL-5; [1],~10 µM
same,activity at 0.01 µM,"IL-13; Homo sapiens, 0.01 µM, 48 hr, read-out: IL-13 (% control) mean",91%
same,activity at 0.03 µM,"IL-13; Homo sapiens, 0.03 µM, 48 hr, read-out: IL-13 (% control) mean",86.4%
same,activity at 0.1 µM,"IL-13; Homo sapiens, 0.1 µM, 48 hr, read-out: IL-13 (% control) mean",82.3%
same,activity at 0.3 µM,"IL-13; Homo sapiens, 0.3 µM, 48 hr, read-out: IL-13 (% control) mean",80.6%
same,activity at 1 µM,"IL-13; Homo sapiens, 1 µM, 48 hr, read-out: IL-13 (% control) mean",75.2%
same,activity at 3 µM,"IL-13; Homo sapiens, 3 µM, 48 hr, read-out: IL-13 (% control) mean",73.4%
same,activity at 10 µM,"IL-13; Homo sapiens, 10 µM, 48 hr, read-out: IL-13 (% control) mean",68.4%
same,IC50,IL-13; [1],~10 µM
same,IL-4 PROTEIN Exp #2,"IL-4; 10 µM, 18 hrs, ELISA of culture supernatants, stimulated control 625.0+/- 23",286.2 ± 19 pg/mL
same,activity at 0.01 µM,"IL-4; Homo sapiens, 0.01 µM, 48 hr, read-out: IL-4 (% control) mean",102%
same,activity at 0.03 µM,"IL-4; Homo sapiens, 0.03 µM, 48 hr, read-out: IL-4 (% control) mean",65.3%
same,activity at 0.1 µM,"IL-4; Homo sapiens, 0.1 µM, 48 hr, read-out: IL-4 (% control) mean",59.8%
same,activity at 0.3 µM,"IL-4; Homo sapiens, 0.3 µM, 48 hr, read-out: IL-4 (% control) mean",45%
same,activity at 1 µM,"IL-4; Homo sapiens, 1 µM, 48 hr, read-out: IL-4 (% control) mean",42.5%
same,activity at 3 µM,"IL-4; Homo sapiens, 3 µM, 48 hr, read-out: IL-4 (% control) mean",36.4%
same,activity at 10 µM,"IL-4; Homo sapiens, 10 µM, 48 hr, read-out: IL-4 (% control) mean",30.8%
same,IC50,IL-4; [1],0.24 µM
same,IFN-γ/ IL-4 Ratio,"IL-4; Human primary Th2 cells, ratio of IC50",> 41
same,2.1-IL-13 - Luc (% of control),human IL-13 promoter,50 ± 12 % of control
same,activity at 0.01 µM,"IFN-γ; Homo sapiens, 0.01 µM, 48 hr, read-out: IFN-γ (% control) mean",96.9%
same,activity at 0.03 µM,"IFN-γ; Homo sapiens, 0.03 µM, 48 hr, read-out: IFN-γ (% control) mean",91.6%
same,activity at 0.1 µM,"IFN-γ; Homo sapiens, 0.1 µM, 48 hr, read-out: IFN-γ (% control) mean",91.8%
same,activity at 0.3 µM,"IFN-γ; Homo sapiens, 0.3 µM, 48 hr, read-out: IFN-γ (% control) mean",92.1%
same,activity at 1 µM,"IFN-γ; Homo sapiens, 1 µM, 48 hr, read-out: IFN-γ (% control) mean",89.2%
same,activity at 3 µM,"IFN-γ; Homo sapiens, 3 µM, 48 hr, read-out: IFN-γ (% control) mean",83.5%
same,activity at 10 µM,"IFN-γ; Homo sapiens, 10 µM, 48 hr, read-out: IFN-γ (% control) mean",75%
same,IC50,IFN-γ; [1],> 10 µM
same,mrna remaining at 10 µM,IL-4 mRNA; read-out: RNA Exp #1 % activity,44%
same,mrna remaining at 10 µM,IL-4 mRNA; read-out: RNA Exp #2 % activity,45%
